Tests used:
“intruder” rat = assay: social exploration test in rats; type: in vivo; conditions: vs vehicle
From the text: There remains a paucity of data investigating the anxiolytic potential of this rufinamide. Therefore the aim of the present study was to test the effect of rufinamide (FIG. 1, chemical structure of rufinamide) with regard to a possible facilitation of social behavior (anxiolytic-like effect) using the social exploration test in rats as a paradigm. The basis of this test is that when an adult “resident” rat is kept in social isolation for two weeks, its natural tendency to establish territorial defensive reactions is increased. […] Male adult Sprague Dawley rats (Ra238, OFA/IC strain, Iffa Credo, France) (“residents”) weighing 350-400 g and young Lister Hooded rats (li/ho, Harlan, The Netherlands) (“intruders”) weighing 100-120 g were used. “Intruders” were housed in pairs and the “residents” were individually housed for two weeks before the test in plastic cages (Macrolon, 42×26×15 cm). All animals lived in a room lit from 6 a.m. until 6 p.m. and had always free access to standard food and water. […]
Pairs consisting of one “intruder” rat and one “resident” rat were assigned at random to one of the experimental or the control groups. […] The duration of active approach behaviors of the “intruder” rat (sniffing, anogenital exploration, nosing, grooming, licking, playing) towards the “resident” was manually registered and cumulatively recorded over a period of 5 minutes. […]

[1] = test system: male OF-1 “intruder” mice; assay: Intruder test (social withdrawal of intruder mice); type: in vivo, mouse
Experimental: Rufinamide, a Na-channel blocker and anti-epileptic agent, and carbamazepine, an anticonvulsant employed to treat bipolar disorder, were given to male OF-1 “intruder” in oral-doses of 1/3/10 mg/kg, 1 hr before the animals were confronted with an individually-housed, aggressive, male OF-1 resident mouse. […] This increase in social investigation (sociotropic effect) was accompanied by a decrease in the frequency and duration of defensive ambivalence probably through competitive inhibition. No signs of motor stimulation were detected.
The Intruder test duplicates a territorial encounter between a territory holder (aggressive male) and a subordinate “intruder” mouse. […] In this test the intruders receive the treatment whereas the residents remain untreated. (Dixon, A. K., Huber, C., Lowe, D. J. Clin. Psychiatry. 55 (9) Suppl B, 4-7 (1994)). For purposes of this study, rufinamide and carbamazepine were given orally to intruder mice 1 hr before being introduced singly to aggressive residents using doses of ⅓ and 10 mg/kg.
Over 60 ethological elements describing the social and non-social behaviour of mice based on the ethogram originally proposed by Grant and Mackintosh (Grant, E. C. Mackintosh, J. H. Behaviour 21: 246-259 (1963) ) and classified according to 9 behavioural categories (Dixon, A. K., Huber, C., Fisch, H. U. Adv. Study. Behaviour. 19: 171-204 (1990)) form the rodent ethogram as used in this test (FIG. 3).

[2] = test system: Male Rj: Wistar (Han) rats; assay: Vogel Conflict Test in the rat; type: in vivo; conditions: for number of shocks received (punished drinking), change vs vehicle control: 60 minutes before the test
Experimental: Rufinamide was dispersed in 0.5% methylcellulose (MC) in distilled water. Vehicle was dispersed in 0.5% MC in distilled water. Clobazam was dispersed in 0.5% MC in distilled water. Methylcellulose (Sigma), batch n° 62K0144, white powder. Distilled water (Laboratoire Aguettant, sterile water for injectable preparation). All substances were stored in a dry, dark, controlled access area and maintained at a controlled ambient temperature (+18° C.). The vehicle suspensions were stored at +4° C.
The vehicle, test substance and reference substance were administered in a volume of 5 ml/kg body weight.
Male Rj: Wistar (Han) rats, 171-205 g body weight range were used. They were supplied by Elevage Janvier, 53940 Le Genest-Saint-Isle, France.
Animals were delivered to the laboratory at least 5 days before the experiment, during which time they were acclimatized to the laboratory conditions. They were housed in groups of 5 in macrolon cages (41×25×14 cm) on wood litter (Litalabo—SPPS, 95100 Argenteuil, France) with free access to food (Code 113-SAFE, 91360 Epinay-sur-Orge, France) and water until
Results in grouped data tables are presented as means followed by a ± sign and the standard error of the mean (s.e.m.) on the basis of 15 animals per group and as percent change from control. The statistical tests used are indicated with the method. All statistical calculations were performed using commercial software (Microsoft Excel®, GB Stat version 6.5), and verified test by test according to Porsolt & Partners Pharmacology's standardized internal procedures. All differences were considered statistically significant when the null hypothesis could be rejected at the risk α=0.05 or less.
Rats were deprived of water for 48 hours and were then placed individually into a transparent Plexiglas enclosure (15×32×34 cm) with a floor consisting of stainless steel bars (0.4 cm) spaced 1 cm apart. The back wall of the enclosure was made of opaque Plexiglass thereby concealing the observer from the experimental animal. In the centre of the opposite wall, 5 cm above the floor, a metal water spout protruded into the cage and was connected to one pole of a shock generator (Apelex: Type 011346). The other pole of the shock generator was connected to the metal grid floor.
The rat was left to explore until it found the water spout. Then, every time it drank, it received a slight electric shock (1.7 mA, 1 sec.) 2 seconds after it started lapping. The number of shocks received (punished drinkings) was counted during a 3 minute period.
15 rats were studied per group. The test was performed blind.
rufinamide was evaluated at 25, 50, 100 and 200 mg/kg, administered p.o. 60 minutes before the test, and compared with a vehicle control group.
Clobazam (64 mg/kg), administered under the same experimental conditions, was used as reference substance.
Data were analyzed by comparing treated groups with vehicle control using unpaired Student's t tests.

[3] = 1/3/10 mg/kg oral, 1 hr before encounter

NC(=O)c1cn(Cc2c(F)cccc2F)nn1 [rufinamide, 1-(2,6-difluorobenzyl)-1H-1,2,3-triazole-4-carboxamide]
time spent in social contact (“intruder” rat; rufinamide 0.3 mg/kg p.o., 1 hour after application): did not induce any significant change | duration of social contacts of an intruder toward a resident rat (“intruder” rat; rufinamide 1, 3, 10, 30 and 100 mg/kg p.o., tested 1 hour after application, 5 min observation): significantly increased | non-social (NS) behaviour, frequency ([1]; 1/3/10 mg/kg oral, 1 hr before 6 minute encounter): significant, dose-related increase | social investigation (SI) ([1]; 1/3/10 mg/kg oral, 1 hr before 6 minute encounter, frequency and duration): increased, albeit in a bell-shaped manner with only changes at 3 mg/kg attaining significance | duration of defensive ambivalence (DA), arrested flight (AF) and escape [1, 3]: significantly reduced but not uniformly | frequencies of arrested flight and escape [1, 3]: only reduced significantly at 1 mg/kg | time spent in non-social activities [1, 3]: only weakly following suit | total number of ethological elements performed in the 6 minute encounter [1, 3]: increased in a dose-related manner | time spent in static flight (SF) postures ([1]; at 3 and 10 mg/kg oral, 1 hr before encounter): significant shortening | dose which is sociotropic in the intruder test ([1]; oral): 3 mg/kg | number of shocks received (punished drinking), change vs vehicle control ([2]; 25 mg/kg p.o., 3 minute period, 15 rats): +31% | number of shocks received (punished drinking), change vs vehicle control ([2]; 50 mg/kg p.o., p<0.05): +40% | number of shocks received (punished drinking), change vs vehicle control ([2]; 100 mg/kg p.o.): +55% | number of shocks received (punished drinking), change vs vehicle control ([2]; 200 mg/kg p.o.): +83% | dose-range of anxiolytic-like activity ([2]; p.o.): 25 to 200 mg/kg | dose from which the increase in shocks received is significant ([2]; p.o., p<0.05): ≥ 50 mg/kg

From US20090054414A1, “Rufinamide for the Treatment of Post-Traumatic Stress Disorder” (SYNOSIA THERAPEUTICS, priority 2007, published 2009)
